{"source": "patent US20030153548A1", "about": "“Histamine-3 receptor ligands for diabetic conditions” (priority 2002, published 2003)", "key": {"[1]": {"test_system": "C57BL-6J mice fed a high-fat diet", "test": "Serum triglyceride levels in mice fed a high-fat diet", "type": "in vivo", "conditions": "FIG. 2"}, "[2]": {"test_system": "C57BL-6J mice fed a high-fat diet", "test": "Insulin tolerance test in mice fed a high-fat diet", "type": "in vivo", "conditions": "FIG. 1", "procedure": "Assessment of the ability of H3 receptor antagonists to ameliorate symptoms of diabetes has been determined in several ways. In the first instance, effects of an H3 antagonist on the insulin tolerance test in mice fed a high-fat diet were determined. C57BL-6J mice (aged 5-6 weeks) were obtained from Jackson Labs (Bar Harbor, Me., U.S.A.) and individually housed at Abbott facilities under conditions of 12 h lights on, 12 h lights off (on at 22:00), with food and water available ad libitum. […] Nine days prior to drug treatment, postprandial blood glucose was determined via a Medisense-G glucometer (Abbott Laboratories, Medisense Division, Bedford, Mass., U.S.A.). […] On day 21, animals were fasted for 3 hours and fasting blood glucose determined in a blood sample obtained by tail snip. Insulin tolerance was determined by administering insulin (Lilly Humulin-R, 0.25 U/kg, i.p., obtained from Eli Lilly and Company, Indianapolis, Ind., U.S.A.) with blood glucose measured at 30, 60, 90 and 120 minutes using the glucometer. […] The 4′-{3-[(3R)-3-(dimethylamino)pyrrolidinyl]propoxy} [1,1′-biphenyl]-4-carbonitrile compound was administered p.o. at doses of 0.5, 5, and 15 mg/kg b.i.d., and dexfenfluramine at a dose of 10 mg/kg p.o., b.i.d. Data were analyzed using GraphPad InStat® (San Diego, Calif., U.S.A.) software using a one-way ANOVA software followed by Dunnett's post hoc test."}}, "data": [{"smiles": "CC(C)CC(N(C)C)C1(c2ccc(Cl)cc2)CCC1", "note": "(centres unmarked) [sibutramine, reference compound]", "values": [{"measurement": "triglyceride levels (effects as of Compound B)", "setting": "[1]; 5 mg/kg p.o. b.i.d., after 13 days", "result": "not seen"}]}, {"smiles": "CN(C)C1CCN(CCCOc2c(F)cc(-c3ccc(C#N)cc3)cc2F)C1", "note": "(centres unmarked) [Compound B]", "values": [{"measurement": "triglyceride levels", "setting": "[1]; 10 mg/kg p.o. b.i.d., after 13 days", "result": "reduced to the same level as those seen in low-fat diet fed mice"}, {"measurement": "triglyceride levels", "setting": "[1]; 1, 3 and 10 mg/kg p.o. b.i.d., postprandial blood after 13 days", "result": "clear, dose-dependent decrease"}]}, {"smiles": "CN(C)[C@@H]1CCN(CCCOc2ccc(-c3ccc(C#N)cc3)cc2)C1", "note": "[Compound A, 4′-{3-[(3R)-3-(dimethylamino)pyrrolidinyl]propoxy}[1,1′-biphenyl]-4-carbonitrile]", "values": [{"measurement": "insulin tolerance test (blood glucose after insulin)", "setting": "[2]; 15 mg/kg p.o. twice daily", "result": "completely normalized"}, {"measurement": "insulin tolerance test (blood glucose after insulin)", "setting": "[2]; 0.5, 5 and 15 mg/kg p.o. b.i.d., day 21, insulin 0.25 U/kg i.p.", "result": "dose-dependent improvement"}]}]}
